Laboratory results from patent US20250057951A1, “DISCERNIBLE CELL SURFACE PROTEIN VARIANTS OF CD117 FOR USE IN CELL THERAPY” (UNIVERSITÄT BASEL, priority 2021, published 2025).
Substitutions are numbered along the chain they refer to. Numbers in names are those of the source. Entries after “also recorded” stand apart in the source; their conditions may differ.

Legend:
[1] = tested on: TF-1 cells; experiment: SCF-dependent proliferation, SCF titration on TF-1 cells with CD117 variants (CellTiter-Glo); format: cell-based, human; details: for EC50 Average: average of two experiments; for EC50 Experiment #1 / EC50 Experiment #2: titration of SCF, 3 days, TF-1 cells with the CD117 variant
Experimental: In another experiment, SCF-dependent proliferation of variants E73K, E73Y, D121K, S123F and S123K was compared against wildtype CD117. TF-1 cells were seeded at a cell concentration of 150 000 cells/ml in sterile, white cell culture treated plates with transparent bottom in RPMI+GlutaMax+10% FCS. Cells were treated with a titration of SCF. After 3 days of incubation a CellTiter-Glo 2.0 assay (Promega) was performed, luminescence was read in a luminometer (Envision plate reader) and EC50's was determined. Two different experiments with triplicates in each experiment were performed.

[2] = tested on: Refmab #1; experiment: Refmab #1 titration on engineered TF-1 cells (flow cytometry); format: binding; details: 5-0.00015 μg/mL antibody; 4° C.
Sequence of Refmab #1 (as listed by the source, one chain of several): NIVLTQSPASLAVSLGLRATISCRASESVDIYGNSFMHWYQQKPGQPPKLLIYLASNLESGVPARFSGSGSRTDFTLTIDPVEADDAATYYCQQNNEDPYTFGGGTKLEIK
Experimental: Binding of Refmab #1 was assessed in a flow cytometry assay. TF-1 cells were seeded at a cell concentration of 1,000,000 cells/ml in FACS Buffer (PBS+2% FCS+1 mM EDTA). After a Fc blocking using 1:20 diluted TruStain (BioLegend, #422302) in FACS buffer for 15 minutes at 4° C., cells were washed twice with FACS buffer. Subsequently, a SR-1 titration was added to the cells using 5-0.00015 μg/mL antibody for 30 minutes at 4° C. on a plate shaker. Cells were washed twice with FACS buffer and a secondary labelled antibody (IgG (H+L) Cross-Adsorbed Goat anti-Human, Alexa Fluor® 488, Invitrogen, A11013) was added to the cells for 30 minutes at 4° C. on a plate shaker. Cells were washed twice with FACS buffer, before adding 1:100 diluted solution of 7AAD staining (cell viability) in FACS buffer for a couple of minutes and analyzing the cells using the Novocyte Quanteon (Agilent).

[3] = biological target: antibody Refmab #1; experiment: Octet titration, steady state KD of CD117 D1-2-3 variants to Refmab #1; format: binding; details: for Kd: 7 concentrations 2000-5 nM, steady state, two individual experiments
Sequence of antibody Refmab #1 (as listed by the source, one chain of several): as above
Experimental: To further characterize binding of Refmab #1 to CD117 D1-2-3 variants E73K, E73L, E73R, E73Y, D121H, D121K, S123K and S123F, the analytes were titrated at 7 different concentrations (from 2000 nM to 5 nM). Antibody Refmab #1 was captured by AHC biosensors for 300 s at 0.5 to 1 μg/mL. Association and dissociation to Refmab #1 was extended to 600 s and 1000 s, respectively. Steady state analysis was performed.

[4] = tested on: antibody Refmab #1; experiment: Octet screen: binding of CD117 D1-2-3 variants to captured Refmab #1; details: nm shift at end of association, top analyte concentration (500 nM)
Experimental: (§1) A more sophisticated analysis of binding to the elected variants was performed with antibody Refmab #1. Binding of Refmab #1 to wt and variants (analyte) was measured in an Octet system RED96e or R8 at 25° C. with shaking at 1,000 rpm using 1× kinetic buffer (Sartorius, PN: 18-1105). First, the elected variants were screened for their ability to bind Refmab #1 using three different concentrations of analytes. Antibody Refmab #1 was captured by Anti-Human Fc capture biosensor (AHC) (Sartorius, PN: 18-5060) for 300 s at 0.5 to 1 μg/mL. As an analyte, human CD117 wt and variants, containing only domains 1, 2 and 3 (CD117 D1-2-3), was titrated at 500 nM, 50 nM and 5 nM. Association and dissociation of the analyte to Refmab #1 was monitored for 300 s and 900 s, respectively. Reference subtraction was performed against buffer only wells. AHC tips were regenerated using 10 mM Gly-HCl pH 1.7. Data were analyzed using the Octet Data Analysis software HT 12.0. Data were fitted (when possible) to a 1:1 binding model. Kinetic rates ka and […] globally fitted. Binding level of the elected variants were compared to wild type and are shown as percent in FIG. 7. For this qualitative analysis, the binding level of the top analyte concentration at end of the association step was used.

[5] = biological target: T1, Biotinylated Avitag-hSCF (human, UniProt P21583 26-190, limits assumed, biotinylated Avitag); experiment: BLI (Octet), steady state: biotinylated SCF on streptavidin biosensor, CD117 D1-2-3 variant as analyte; KD relative to WT
T1 construct: Bought reagent; also called hSCF (Acros Biosystems SCF-H82E1)
T1 sequence (P21583 26-190 limits assumed): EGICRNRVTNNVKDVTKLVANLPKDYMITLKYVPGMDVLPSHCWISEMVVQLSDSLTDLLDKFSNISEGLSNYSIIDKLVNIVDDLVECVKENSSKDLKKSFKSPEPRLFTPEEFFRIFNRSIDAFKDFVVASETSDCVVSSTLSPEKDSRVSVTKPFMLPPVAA
Experimental: Association was monitored for 300 s and dissociation for 600 s. […] Reference subtraction was performed against buffer only wells. Biosensors were not regenerated and a new set of SA biosensors was used for each analyte. Data were analyzed using the Octet Data Analysis software HT 12.0. Steady state data analysis was performed due to the fast on/off nature of the interaction.

[6] = tested on: Refmab #2; experiment: Octet: binding of CD117 variants to Refmab #2; details: qualitative Octet analysis
Experimental: as §1
(§2) A similar experiment to that in Example 7 was performed, but utilizing Refmab's #2 and #3.

[7] = biological target: human wild-type CD117 (human, UniProt P10721 26-976); experiment: cell-based or functional assay
[8] = tested on: variants of CD117; experiment: Blocking of SCF-induced CD117 phosphorylation (Tyr719 ELISA), TF-1 cells with CD117 variants; format: cell-based, human; details: 0.5 μg/ml antibody 30 minutes; 100 ng/ml SCF 5 minutes; same for E73K, E73Y, S123F (data not shown)
Experimental: (§3) SCF-dependent phosphorylation is another function of CD117. SCF-dependent phosphorylation was measured using TF-1 cells expressing CD117 (as shown in previous experiments). TF-1 cells were seeded at a concentration of 1 million cells/ml in 1 ml of Medium (RPMI1640 supplemented with GlutaMAX+10% heat inactivated FBS) in a 6-well plate. Cells were treated with 0.5 ug/mL antibody or 500 nM avapratinib. Cells were then treated with 100 ng/ml recombinant human SCF (1 mg/ml PeproGMP® Recombinant Human SCF) for 5 minutes, before cell collection. Cells were washed with ice-cold PBS, before resuspending cells in 250 μL Lysis Buffer (Lysis buffer from Signaling containing Protease Inhibitor and Phosphatase Inhibitor). Cells were flash frozen in liquid nitrogen and thawed at 37° C. twice, before freezing them at −80° C. until further usage. Undiluted samples were thawed and processed according to the manufacturers protocol for the PathScan® Phospho-c-Kit (Tyr719) Sandwich ELISA Kit (Cell Signaling). Absorbance (OD_450 nm) was assessed using the Envision (Perkin Elmer).
(§4) TF-1 cells (wild type, and variants E73K, E73Y, D121K, S123F and S123K of CD117) were seeded at a concentration of 1 million cells/mL in 2 ml of Medium (RPMI1640 supplemented with GlutaMAX+10% heat inactivated FBS) in a 6-well plate. Cells were pre-treated with 0.5 μg/ml of antibodies Refmab #1-Ernie or Refmab #1-Bert for 30 minutes, before adding 100 ng/ml recombinant human SCF (1 mg/mL PeproGMP® Recombinant Human SCF) for 5 minutes. Cells were collected, washed once with ice-cold PBS and resuspended in 500 μL Lysis Buffer (Lysis buffer from Signaling containing Protease Inhibitor and Phosphatase Inhibitor). Cells were then flash frozen in liquid nitrogen and thawed at 37° C. twice, before freezing them at −80° C. until further usage. Undiluted samples were thawed and processed according to the manufacturers protocol for the PathScan Phospho-c-Kit (Tyr719) Sandwich ELISA Kit (Cell Signaling) or the Human c-Kit (CD117) ELISA Kit (Abcam). Absorbance (OD_450 nm) was assessed using the Envision (Perkin Elmer).

[9] = tested on: CD117; experiment: Blocking of SCF-induced CD117 phosphorylation (Tyr719 ELISA), wild type TF-1 cells; format: cell-based, human; details: 0.5 ug/mL antibody or 500 nM avapritinib; 100 ng/ml SCF 5 minutes
Experimental: as §3, §4

[10] = tested on: Refmab #3; experiment: Octet: binding of CD117 variants to Refmab #3; details: qualitative Octet analysis
Sequence of Refmab #3 (as listed by the source): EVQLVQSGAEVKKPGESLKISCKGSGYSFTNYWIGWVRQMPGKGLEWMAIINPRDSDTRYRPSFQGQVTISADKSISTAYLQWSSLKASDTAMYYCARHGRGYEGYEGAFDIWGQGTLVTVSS
Sequence of Refmab #3 (as listed by the source): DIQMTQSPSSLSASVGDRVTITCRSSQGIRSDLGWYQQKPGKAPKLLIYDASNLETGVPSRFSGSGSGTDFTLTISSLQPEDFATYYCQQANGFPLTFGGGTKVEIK
Experimental: as §1, §2

[11] = biological target: T2, SCF (Homo sapiens, UniProt P21583); experiment: Octet: binding of CD117 D1-2-3 variants to SCF; details: CD117 D1-2-3 constructs; steady state
T2 construct: purchased Acros Biosystems SCF-H82E1
T2 sequence (P21583 26-273): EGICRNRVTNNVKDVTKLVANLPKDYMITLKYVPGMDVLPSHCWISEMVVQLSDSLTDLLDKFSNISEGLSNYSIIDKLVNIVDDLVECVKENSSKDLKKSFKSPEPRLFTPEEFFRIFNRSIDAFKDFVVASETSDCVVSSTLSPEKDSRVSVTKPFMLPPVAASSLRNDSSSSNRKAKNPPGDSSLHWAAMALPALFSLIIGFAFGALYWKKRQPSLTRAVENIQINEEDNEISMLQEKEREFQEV
Experimental: SCF binding is one function of CD117. SCF binding is important for the transmission of functional signals by CD117. Binding of the elected variants to SCF was measured on an Octet system RED96e or R8 at 25° C. with shaking at 1000 rpm using 1× Kinetic Buffer (Sartorius, PN: 18-1105). […] Domain 1, 2, 3 comprise the binding site for SCF. Domains 4 and 5 were used as a negative, non-binding control.
CD117 D1-2-3 wt and variants thereof are titrated with different concentrations from 1000 to 5 nM. Association was monitored for 300 s and dissociation for 600 s. Binding to human CD117 domain 4 and 5 (CD117 D4-5) was performed under the same conditions as non-binding control. Reference subtraction was performed against buffer only wells. Biosensors were not regenerated and a new set of SA biosensors was used for each analyte. Data were analyzed using the Octet Data Analysis software HT 12.0. Steady state data analysis was performed due to the fast on/off nature of the interaction.

wild type CD117: wild type human CD117 (SEQ ID No. 1); recombinant D1-2-3 construct or expressed in TF-1 cells [reference compound]
EC50 Average [1]: 4.18 ± 0.04 ng/mL
EC50 Experiment #1 [1]: 4.14 ng/mL
EC50 Experiment #2 [1]: 4.22 ng/mL
Binding of Refmab #1 to TF-1 cells expressing the CD117 variant [2]: bound
Kd [3]: 1 nM

E73Y: variant of human CD117 with substitution E73Y
EC50 Average [1]: 4.01 ± 0.37 ng/mL
EC50 Experiment #1 [1]: 4.37 ng/mL
EC50 Experiment #2 [1]: 3.64 ng/mL
binding to Refmab #1 compared to wild type [4]: particular strong decrease in binding
Binding of Refmab #1 to TF-1 cells expressing the CD117 variant [2]: completely abolished
Kd [3]: 691 nM
change of KD compared to wild type CD117 ([3]; KD variant vs wild type): around 700 fold

B1: R122H (receptor)
extracellular domains 1, 2 and 3: QPSVSPGEPSPPSIHPGKSDLIVRVGDEIRLLCTDPGFVKWTFEILDETNENKQNEWITEKAEATNTGKYTCTNKHGLSNSIYVFVRDPAKLFLVDHSLYGKEDNDTLVRCPLTDPEVTNYSLKGCQGKPLPKDLRFIPDPKAGIMIKSVKRAYHRLCLHCSVDQEGKSVLSEKFILKVRPAFKAVPVVSVSKASYLLREGEEFTVTCTIKDVSSSVYSTWKRENSQTKLQEKYNSWHHGDFNYERQATLTISSARVNDSGVFMCYANNTFGSANVTTTLEVVD
notes: not in the list MOLECULES; also called human CD117 D1-2-3 variant R122H
binding result [5]: binds
binding to Refmab #2 compared to wild type CD117 [6]: strong decrease in binding
binding to Refmab #1 compared to wild type [4]: particular strong decrease in binding

B2: Refmab #1-Ernie (antibody, V domains shown)
VH: QVQLQQPGAELVKPGASVKMSCKASGYTFTSYNMHWVKQTPGQGLEWIGVIYSGNGDTSYNQKFKGKATLTADKSSSTAYMQINSLTSEDSAVYYCARERDTRFGNWGQGTLVTVSA
VL: EIVLTQSPSSLSASVGDRVTITCRASESVDIYGESFMHWYQQKPGKAPKLLIYLASNLESGVPSRFSGSGSGTDFTLTISSLQPEDFATYYCQQNNEEPYTFGQGTKLEIKR
IC50 in a SCF-dependent proliferation assay on HSPC's [7]: 5.21 ng/mL
IC50 in a SCF-dependent proliferation assay on TF-1 cells [7]: 17.6 ng/mL

B3: Refmab #1-Ernie: improved version of Refmab #1, VH SEQ ID 15, VL SEQ ID 62 (antibody, V domains shown)
VH: B2 VH
VL: EIVLTQSPSSLSASVGDRVTITCRASESVDIYGESFMHWYQQKPGKAPKLLIYLASNLESGVPSRFSGSGSGTDFTLTISSLQPEDFATYYCQQNNEEPYTFGQGTKLEIKRTV
modifications: Refmab #1 VH
blocking of SCF-dependent CD117 phosphorylation, D121K and S123K variants [8]: unaffected
blocking of SCF-induced phosphorylation, wild type cells [9]: blocked

B4: Refmab #1-Bert (antibody, V domains shown)
VH: B2 VH
VL: B2 VL with N96K
IC50 in a SCF-dependent proliferation assay on HSPC's [7]: 31.3 ng/mL
IC50 in a SCF-dependent proliferation assay on TF-1 cells [7]: 44.1 ng/mL

B5: Y259P: variant of human CD117 with substitution Y259P (protein)
chain: QPSVSPGEPSPPSIHPGKSDLIVRVGDEIRLLCTDPGFVKWTFEILDETNENKQNEWITEKAEATNTGKYTCTNKHGLSNSIYVFVRDPAKLFLVDRSLYGKEDNDTLVRCPLTDPEVTNYSLKGCQGKPLPKDLRFIPDPKAGIMIKSVKRAYHRLCLHCSVDQEGKSVLSEKFILKVRPAFKAVPVVSVSKASYLLREGEEFTVTCTIKDVSSSVYSTWKRENSQTKLQEKPNSWHHGDFNYERQATLTISSARVNDSGVFMCYANNTFGSANVTTTLEVVDKG
binding to Refmab #3 compared to wild type CD117 [10]: strong decrease in binding
KD increase of SCF binding compared to wild type CD117 [11]: less than three-fold; also recorded: less than four-fold

B6: S239K: variant of human CD117 with substitution S239K (protein)
chain: B5 chain with S214K, P234Y
binding to Refmab #2 compared to wild type CD117 [6]: strong decrease in binding
